{
  "source": "patent US20250361267A1",
  "about": "“CHIMERIC COMPOUND FOR DEGRADING CYCLOPHILIN A, PREPARATION METHOD THEREFOR, AND USE THEREOF” (INSTITUTE OF MICROBIOLOGY, CHINESE ACADEMY OF SCIENCES, priority 2022, published 2025)",
  "key": {"A549 cells [1]": {"system": "A549 cells", "experiment": "Effect on A549 cell activity by CCK-8 method", "assay_type": "cell-based", "conditions": "0 to 10^5 nM, 12 hours", "protocol": "(§1) (1) A549 cells in the logarithmic phase were collected, the concentration of the cell suspension was adjusted, and 100 μL was added per well. The cells to be tested were plated to a density of 10^3 to 10^4 cells/well and incubated at 37° C. under 5% CO2 until the bottom of the wells was covered by a single layer of cells.\n(§2) (2) Different concentrations of the compound represented by Formula I were added: 0, 10, 10^2, 10^3, 10^4 and 10^5 nM/well, with 3 replicate wells set, and incubated at 37° C. under 5% CO2 for 12 hours.\n(1) 10 μL CCK-8 reagent was added to the above cells in each well and reacted for 2 h.\n(2) The incubation was terminated, and the culture medium in the wells was carefully aspirated.\n(3) The absorbance of each well was measured using a microplate reader with a wavelength of 450 nm.\n(4) The absorbance ratio between the experimental group and the control group was calculated as follows: Cell viability=(Absorbance of the experimental group−Blank control)+ (Absorbance of the control group−Blank control)×100%."}, "CypA [2]": {"biological_target": "T1, CypA (Homo sapiens, UniProt P62937)", "T1 construct": "A549 cells in the logarithmic phase were collected; endogenous in cells; host or cells: A549", "T1 sequence (P62937 whole entry)": "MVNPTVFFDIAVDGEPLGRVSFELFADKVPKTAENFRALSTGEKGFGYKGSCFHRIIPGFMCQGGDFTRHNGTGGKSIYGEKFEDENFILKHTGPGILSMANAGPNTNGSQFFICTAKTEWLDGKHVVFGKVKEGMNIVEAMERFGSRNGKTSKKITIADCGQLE", "experiment": "CypA degradation in A549 cells by Western Blot", "assay_type": "cell-based", "conditions": "A549 cell line", "protocol": "as §1, §2\n(1) The treated cells were scraped off from the culture medium, suspended thoroughly, and then collected by centrifugation at 300 g for 5 minutes. After washing with PBS once, the PBS was discarded.\n(2) 100 μL of 2× Loading Buffer was added to each sample, shaken thoroughly to mix well, denatured at 100° C. for 5 minutes, and stored at −20° C. after mixing well or directly used for Western Blot detection. The Formula of 5× Loading Buffer was as follows: 250 mM Tris-HCl (pH 6.8), 10% (W/V) SDS, 0.5% (W/V) bromophenol blue, 50% (V/V) glycerol, 5% (W/V) β-mercaptoethanol (2-ME). […]\n2) Sample preparation: protein samples were prepared according to experimental requirements, centrifuged, mixed well, and loaded into the loading wells of SDS-PAGE gel. The loading volume was adjusted appropriately according to the protein quantification results. […]"}, "CypA [3]": {"biological_target": "CypA (Mus musculus, UniProt P17742)", "sequence (P17742 whole entry)": "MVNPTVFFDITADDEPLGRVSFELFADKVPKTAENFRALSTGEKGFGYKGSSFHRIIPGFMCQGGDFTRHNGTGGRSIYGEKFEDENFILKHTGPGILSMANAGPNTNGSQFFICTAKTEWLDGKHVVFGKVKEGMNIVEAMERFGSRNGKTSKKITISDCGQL", "assay_type": "in vivo, C57BL/6 mice", "conditions": "IBV-infected mice, 10 mg/kg/day, 7 days after infection"}, "IBV-induced pneumonia": {"system": "IBV-induced pneumonia", "parameters": "species or system C57BL/6 mice", "conditions": "mouse, in vivo"}, "[4]": {"system": "IL-1B, TNF-α, IL-6 and IFN-γ", "parameters": "species or system C57BL/6 mice", "conditions": "mouse, in vivo"}, "rheumatoid arthritis": {"system": "rheumatoid arthritis", "experiment": "Rat arthritis model (Freund complete adjuvant)", "assay_type": "in vivo, Lewis rats", "conditions": "rats, 10 mg/kg tail vein three times/week", "protocol": "The BCG vaccine was inactivated in a water bath at 80° C. for 1 h, ground thoroughly with incomplete Freund adjuvant, and mixed well to prepare 15 mg/mL Freund complete adjuvant (FCA). Lewis rats were divided into 4 groups: blank group (PBS), untreated group (UT), treatment group 1 (compound) and treatment group 2 (MTX (methotrexate)), with 5 rats in each group and a body weight of […]. Except for the PBS group, rats were intradermally injected with 0.1 mL of FCA in the right hind paw. On day 14 after injection, rats in treatment group 1 (compound) were injected with the compound (10 mg/kg of body weight, dissolved in 100 μL of PBS) through the tail vein three times/week; rats in treatment group 2 (MTX (methotrexate)) were intraperitoneally injected with methotrexate (1.2 mg/kg of body weight) three times/week.\nThe circumference of the metatarsophalangeal joint was measured. The circumference of the ankle joint of the left hind paw (on the secondary lesion side) of all rats was measured once before modeling, before administration and 3 weeks after administration, respectively, and the percentage of joint swelling was calculated.\nThe joint index was determined by joint swelling score before administration (Day 0) and 3 weeks after administration. Scoring was carried out based on the redness and swelling degree of the ankle and toe joints of the front and rear limbs of rats and the affected joint index, as follows: 0 for normal; 1 for the redness and swelling of one joint; 2 for the redness and swelling of two or more joints; 3 for severe redness and swelling of the paw below the ankle joint; 4 for the redness and swelling of the entire paw including the ankle joint and inability to bear weight. The limbs were scored separately, and the cumulative sum of the scores was the joint index.\n(1) On the day 21 of administration, rats were euthanized after blood collection. […]\n(2) Joint synovial proliferation and the degree of sub-synovial inflammation were observed under a light microscope, and synovial cell proliferation was scored."}, "A549 cells [5]": {"system": "A549 cells", "experiment": "Migration and infiltration of lung cancer cells, Transwell chambers", "assay_type": "cell-based", "protocol": "as §1, with “10^3-10^4” for “10^3 to 10^4”\nas §2\nThe upper chamber of a 24-well cell culture insert ([…] pore size) was coated (no migration) or (invasive) with a matrix (1 mg/mL) and dried at 37° C. for 30 min.\n(3) A549/WT and A549/CypA-cells were trypsinized, washed and suspended in serum-free DMEM after treatment with 20 ng/ml TGF-β for 48 h.\n(1) DMEM containing 10% fetal bovine serum was added to the lower chamber per approximately 5×10^4 cells inserted in the upper chamber.\n(2) After incubation for 6 h (migration) or 24 h (invasion), non-migrating or […] cells residing on the upper part of the insert membrane were removed with a cotton swab.\n(3) The cells that migrated to the underside of the membrane were fixed and stained with 2% crystal violet in ethanol.\n(4) The stained cells were observed and counted under a Japan Olympus CKX41 microscope."}},
  "data": [
    {"molecule": "Cc1ncsc1-c1ccc(C(C)NC(=O)[C@@H]2C[C@@H](O)CN2C(=O)[C@H](NC(=O)COCCCCCOc2cccc(O)c2C(=O)NC(=O)NC2CCCCC2)C(C)(C)C)cc1", "note": "(stereo partly drawn) [Formula I]", "values": [
      {"measurement": "cell viability", "setting": "A549 cells [1]", "value": "above 80%"},
      {"measurement": "DC50", "setting": "CypA [2]; 12 hours, Western Blot, read-out: half-degradation concentration on CypA", "value": "< 100", "unit": "nM"},
      {"measurement": "degradation effect on the CypA protein", "setting": "CypA [2]; WB results", "value": "clearly observed"},
      {"measurement": "expression of CypA in mouse lung tissue", "setting": "CypA [3]", "value": "significantly reduce"},
      {"measurement": "lung injury (lung index, pathology, pathological scores)", "setting": "IBV-induced pneumonia", "value": "significantly alleviate lung injury"},
      {"measurement": "expression of IFN-γ in the lung tissue", "setting": "[4]", "value": "significantly reduce"},
      {"measurement": "expression of IL-1B in the lung tissue", "setting": "[4]", "value": "significantly reduce"},
      {"measurement": "expression of IL-6 in the lung tissue", "setting": "[4]", "value": "significantly reduce"},
      {"measurement": "expression of TNF-α in the lung tissue", "setting": "[4]", "value": "significantly reduce"},
      {"measurement": "lung inflammation", "setting": "[4]", "value": "alleviating lung inflammation"},
      {"measurement": "joint index of the ankle joint", "setting": "rheumatoid arthritis; 3 weeks after administration", "value": "reduce"},
      {"measurement": "joint swelling", "setting": "rheumatoid arthritis; 3 weeks after administration", "value": "significantly relieve"},
      {"measurement": "inflammation of the ankle joint (ankle pathological scores)", "setting": "rheumatoid arthritis; day 21, HE staining", "value": "alleviate"},
      {"measurement": "infiltration of lung cancer cells", "setting": "A549 cells [5]; Transwell with matrix, 24 h", "value": "significantly reduce"},
      {"measurement": "migration of lung cancer cells", "setting": "A549 cells [5]; Transwell, 6 h", "value": "significantly reduce"}
    ]}
  ]
}
